According to US20220226337A1 (Gilead Sciences, Inc., priority 2018, published 2022):

target: T1, α4β7 integrin interaction with MadCAM-1 (RPMI8866 cells) (Homo sapiens, UniProt P13612+P26010); experiment: α4β7 Integrin Cell Capture Assay; assay type: cell-based; conditions: capture of α4β7 integrin expressing RPMI8866 cells on recombinant MadCAM-1 extracellular domain-coated plate; 0.5 mM MnCl2
T1 construct: α4β7 integrin expressing cells; endogenous in cells; host or cells: RPMI8866 cells
T1 sequence (P13612 34-1032): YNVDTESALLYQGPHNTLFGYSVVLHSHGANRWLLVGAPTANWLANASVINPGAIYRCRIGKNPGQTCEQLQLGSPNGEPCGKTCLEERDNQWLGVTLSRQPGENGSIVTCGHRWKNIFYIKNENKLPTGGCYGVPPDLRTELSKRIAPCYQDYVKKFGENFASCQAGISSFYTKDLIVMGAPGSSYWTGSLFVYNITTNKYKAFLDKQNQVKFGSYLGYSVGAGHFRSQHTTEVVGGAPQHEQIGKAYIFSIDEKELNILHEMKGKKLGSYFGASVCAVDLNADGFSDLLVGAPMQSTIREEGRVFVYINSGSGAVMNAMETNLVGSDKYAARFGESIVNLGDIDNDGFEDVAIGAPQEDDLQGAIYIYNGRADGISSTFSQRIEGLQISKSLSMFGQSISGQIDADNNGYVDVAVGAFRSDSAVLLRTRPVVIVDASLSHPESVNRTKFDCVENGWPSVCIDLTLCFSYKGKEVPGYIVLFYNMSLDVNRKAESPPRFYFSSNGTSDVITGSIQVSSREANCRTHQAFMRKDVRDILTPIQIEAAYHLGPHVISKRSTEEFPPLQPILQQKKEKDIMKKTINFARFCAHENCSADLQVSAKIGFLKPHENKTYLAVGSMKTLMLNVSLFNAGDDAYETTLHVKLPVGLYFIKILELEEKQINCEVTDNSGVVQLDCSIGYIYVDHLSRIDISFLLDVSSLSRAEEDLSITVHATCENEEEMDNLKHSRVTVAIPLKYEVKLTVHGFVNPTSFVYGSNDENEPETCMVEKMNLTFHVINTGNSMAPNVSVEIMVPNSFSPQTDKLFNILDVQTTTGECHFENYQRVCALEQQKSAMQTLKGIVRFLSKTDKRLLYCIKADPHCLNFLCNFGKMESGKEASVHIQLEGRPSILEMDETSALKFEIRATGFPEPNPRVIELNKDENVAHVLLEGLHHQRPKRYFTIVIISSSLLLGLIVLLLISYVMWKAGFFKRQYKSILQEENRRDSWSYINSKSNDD
T1 sequence (P26010 20-798): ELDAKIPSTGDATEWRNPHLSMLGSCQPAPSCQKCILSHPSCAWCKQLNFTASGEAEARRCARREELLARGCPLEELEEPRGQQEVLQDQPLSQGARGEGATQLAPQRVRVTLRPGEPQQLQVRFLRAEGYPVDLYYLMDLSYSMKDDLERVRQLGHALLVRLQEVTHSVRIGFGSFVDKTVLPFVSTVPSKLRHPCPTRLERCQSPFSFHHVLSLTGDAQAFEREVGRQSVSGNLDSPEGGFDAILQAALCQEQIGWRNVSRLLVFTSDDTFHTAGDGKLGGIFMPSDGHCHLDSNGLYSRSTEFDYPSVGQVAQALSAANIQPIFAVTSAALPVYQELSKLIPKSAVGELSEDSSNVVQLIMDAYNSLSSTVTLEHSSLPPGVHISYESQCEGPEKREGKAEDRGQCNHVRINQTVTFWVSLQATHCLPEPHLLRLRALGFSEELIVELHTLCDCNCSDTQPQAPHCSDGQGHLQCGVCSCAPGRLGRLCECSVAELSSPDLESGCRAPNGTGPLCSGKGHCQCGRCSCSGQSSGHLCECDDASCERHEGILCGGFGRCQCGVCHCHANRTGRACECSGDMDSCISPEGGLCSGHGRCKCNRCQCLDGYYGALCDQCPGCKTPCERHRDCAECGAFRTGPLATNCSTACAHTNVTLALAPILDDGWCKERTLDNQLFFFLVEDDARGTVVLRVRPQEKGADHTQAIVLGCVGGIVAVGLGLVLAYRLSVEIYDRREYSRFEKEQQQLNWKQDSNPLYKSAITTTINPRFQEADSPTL
Summary of the method: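 RPMI8866 cells (0.5×10^6 cells/mL in DMEM + 0.5% FBS + 0.5 mM MnCl2) preincubated with compound 1 h at 37 °C, then allowed to adhere 30 min at 37 °C to plates coated with MAdCAM-1 extracellular domain (1.0 μg/mL). Bound cells fixed with 2% glutaraldehyde, Hoechst-stained, imaged and counted; EC50 from cell count versus concentration.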

Row | EC50 | Compound
1 | 0.203 nM | Cc1nc(C)n(C)c(=O)c1-c1ccc(C[C@H](NC(=O)c2c(F)cc(N3CCOC[C@@H]3C(F)(F)F)cc2F)C(=O)O)c2c1OCCC2 (atropisomer, axis not shown) [Example 117]
2 | 0.53 nM | Cn1cc(-c2ccc(C[C@H](NC(=O)c3c(F)cc(N[C@H](c4ccccc4)C(F)(F)F)cc3F)C(=O)O)c3c2OCCC3)c(=O)n(C)c1=O [Example 85, (S)-2-(2,6-difluoro-4-(((R)-2,2,2-trifluoro-1-phenylethyl)amino)benzamido)-3-(8-(1,3-dimethyl-2,4-dioxo-1,2,3,4-tetrahydropyrimidin-5-yl)chroman-5-yl) propanoic acid]
3 | 0.195 nM | COc1cc(C)n(C)c(=O)c1-c1ccc(C[C@H](NC(=O)c2c(C)cc(N3CCOC[C@@H]3C(F)(F)F)cc2F)C(=O)O)c2c1OCCC2 [Example 166]
4 | 1.56 nM | Cc1nc(-c2ccc(C[C@H](NC(=O)c3c(F)cc(N4CC[C@@H]4C(F)(F)F)cc3F)C(=O)O)c3c2OCCC3)c(=O)n(C)c1C [Example 131]
5 | 5.04 nM | CCc1nc(-c2ccc(C[C@H](NC(=O)c3c(C)cccc3F)C(=O)O)c3c2OCCO3)c(=O)n(C)c1CC [Example 180]
6 | 0.189 nM | Cc1cc(N2CCOC[C@@H]2C(F)(F)F)cc(F)c1C(=O)N[C@@H](Cc1ccc(-c2c(C)nc(C)n(C)c2=O)c2c1CCCO2)C(=O)O [Example 129]
7 | 0.63 nM | CC[C@@H](Nc1cc(F)c(C(=O)N[C@@H](Cc2ccc(-c3c(C(F)(F)F)cc(C)n(C)c3=O)c3c2CCC3)C(=O)O)c(F)c1)C(F)(F)F [Example 201]
8 | 0.358 nM | Cc1cc(N2CCOC[C@@H]2C(F)(F)F)cc(F)c1C(=O)N[C@@H](Cc1ccc(-c2cc(C)c(C)n(C)c2=O)c2c1CCCO2)C(=O)O [Example 155]
9 | 20.6 nM | Cn1c(=O)c(-c2ccc(C[C@H](NC(=O)c3c(Cl)cccc3Cl)C(=O)O)c3c2OC(C)(C)C3)cc2ccccc21 [Example 38, (S)-2-(2,6-dichlorobenzamido)-3-(2,2-dimethyl-7-(1-methyl-2-oxo-1,2-dihydroquinolin-3-yl)-2,3-dihydrobenzofuran-4-yl)propanoic acid]
10 | 29.3 nM | COc1cc2ccccc2cc1-c1ccc(C[C@H](NC(=O)c2c(F)cccc2F)C(=O)O)c2c1OCCO2 [Example 11, (S)-2-(2,6-difluorobenzamido)-3-(8-(3-methoxynaphthalen-2-yl)-2,3-dihydrobenzo[b][1,4]dioxin-5-yl)propanoic acid]
11 | 2.56 nM | Cc1c(-c2ccc(C[C@H](NC(=O)c3c(F)cccc3F)C(=O)O)c3c2OCCC3)c(=O)n(C)c2ccccc12 (single isomer, unassigned) [Example 58]
12 | 3.3 nM | Cc1c(-c2ccc(C[C@H](NC(=O)c3c(Cl)cccc3Cl)C(=O)O)c3c2OCCC3)c(=O)n(C)c2ccccc12 (single isomer, unassigned) [Example 62]
13 | 109 nM | O=C(N[C@@H](Cc1ccc(-c2c(Cl)cc(F)cc2Cl)c2c1[C@H]1C[C@H]1CO2)C(=O)O)c1c(Cl)cccc1Cl (single isomer, unassigned) [Example 81]
14 | 0.431 nM | Cc1c(-c2ccc(C[C@H](NC(=O)c3c(F)cc(N4CCOC[C@@H]4C(F)(F)F)cc3F)C(=O)O)c3c2OCCO3)c(=O)n(C)c(=O)n1C (single isomer, unassigned) [Example 9]
15 | 158 nM | Cn1nc(-c2ccc(C[C@H](NC(=O)c3c(Cl)cccc3Cl)C(=O)O)c3c2OCCC3)c2ccccc21 [Example 69, (S)-2-(2,6-dichlorobenzamido)-3-(8-(1-methyl-1H-indazol-3-yl)chroman-5-yl)propanoic acid]
16 | 1.6 nM | Cc1c(-c2ccc(C[C@H](NC(=O)c3c(F)cccc3F)C(=O)O)c3c2CCOC3)c(=O)n(C)c2ccc(F)cc12 (single isomer, unassigned) [Example 37]
17 | 37.8 nM | Cc1cccc(F)c1C(=O)N[C@@H](Cc1ccc(-c2c(Cl)cc(F)cc2Cl)c2c1OCCO2)C(=O)O [Example 7, (S)-3-(8-(2,6-dichloro-4-fluorophenyl)-2,3-dihydrobenzo[b][1,4]dioxin-5-yl)-2-(2-fluoro-6-methylbenzamido)propanoic acid]
18 | 0.521 nM | Cc1cc(N2CCC2)c(-c2ccc(C[C@H](NC(=O)c3c(F)cc(N4CCOC[C@@H]4C(F)(F)F)cc3F)C(=O)O)c3c2OCCC3)c(=O)n1C [Example 167]
19 | 0.358 nM | Cc1c(C)c(C)n(C)c(=O)c1-c1ccc(C[C@H](NC(=O)c2c(F)cc(N3CCOC[C@@H]3C(F)(F)F)cc2F)C(=O)O)c2c1OCCC2 [Example 154]
20 | 0.36 nM | Cc1cc(C(F)(F)F)c(-c2ccc(C[C@H](NC(=O)c3c(F)cc(N4CCOC[C@@H]4C(F)(F)F)cc3F)C(=O)O)c3c2CCN(C)C3)c(=O)n1C [Example 203]
21 | 2.42 nM | C[C@@H](Nc1cc(F)c(C(=O)N[C@@H](Cc2ccc(-c3cn(C)c(=O)n(C)c3=O)c3c2CCCO3)C(=O)O)c(F)c1)C(F)(F)F [Example 88, (S)-2-(2,6-difluoro-4-(((R)-1,1,1-trifluoropropan-2-yl)amino)benzamido)-3-(8-(1,3-dimethyl-2,4-dioxo-1,2,3,4-tetrahydropyrimidin-5-yl)chroman-5-yl)propanoic acid]
22 | 0.152 nM | CC[C@@H](Nc1cc(F)c(C(=O)N[C@@H](Cc2ccc(-c3c(C)n(C)c(=O)n(C)c3=O)c3c2CCCO3)C(=O)O)c(F)c1)C(F)(F)F (single isomer, unassigned) [Example 55]
23 | 1.82 nM | Cc1nc(-c2ccc(C[C@H](NC(=O)c3c(F)cc(N4CCO[C@@H](C)C4)cc3F)C(=O)O)c3c2OCCC3)c(=O)n(C)c1C [Example 157]
24 | 0.692 nM | CC[C@@H](Nc1cc(F)c(C(=O)N[C@@H](Cc2ccc(-c3c(OC)cc(C)n(C)c3=O)c3c2COC3)C(=O)O)c(F)c1)C(F)(F)F [Example 23, (S)-2-(2,6-difluoro-4-(((R)-1,1,1-trifluorobutan-2-yl)amino)benzamido)-3-(7-(4-methoxy-1,6-dimethyl-2-oxo-1,2-dihydropyridin-3-yl)-1,3-dihydroisobenzofuran-4-yl) propanoic acid]
25 | 0.14 nM | Cc1cc(N2CCOC[C@@H]2C(F)(F)F)cc(F)c1C(=O)N[C@@H](Cc1ccc(-c2cc3cnccc3n(C)c2=O)c2c1CCCO2)C(=O)O [Example 170]
26 | 0.939 nM | CC[C@@H](Nc1cc(F)c(C(=O)N[C@@H](Cc2ccc(-c3c(C)n(C)c(=O)n(C)c3=O)c3c2COC3)C(=O)O)c(F)c1)C(F)(F)F [Example 15, (S)-2-(2,6-difluoro-4-(((R)-1,1,1-trifluorobutan-2-yl)amino)benzamido)-3-(7-(1,3,6-trimethyl-2,4-dioxo-1,2,3,4-tetrahydropyrimidin-5-yl)-1,3-dihydroisobenzofuran-4-yl)propanoic acid]
27 | 34 nM | O=C(N[C@@H](Cc1ccc(-c2c(Cl)cc(F)cc2Cl)c2c1OCCN2)C(=O)O)c1c(F)cccc1F [Example 51, (S)-3-(5-(2,6-dichloro-4-fluorophenyl)-3,4-dihydro-2H-benzo[b][1,4]oxazin-8-yl)-2-(2,6-difluorobenzamido)propanoic acid]
28 | 19 nM | COCN(C(=O)c1c(F)cc(N2CCOC[C@@H]2C(F)(F)F)cc1F)[C@@H](Cc1ccc(-c2nc(C)c(C)n(C)c2=O)c2c1CCCO2)C(=O)O [Example 116]
